In PMC10696402 (The Journal of Biological Chemistry, 2023):
Where “and” joins values, the source holds several entries; their conditions need not be identical. Equal values may be shown once. Entries after “also recorded” stand apart in the source; their conditions may differ. Read-outs that look alike come from different tables or passages of the source.

Legend:
CYP2C9 = conditions: cited from earlier work
CYP2C9 homology model = conditions: homology model based on rabbit CYP2C5 crystal structure; cited from earlier work
CYP2C9 Lys206Ala mutant [1] = biological target: T1, CYP2C9 Lys206Ala mutant (Homo sapiens, UniProt P11712, K206A); test: in vitro; conditions: pH 7.4, Km, flurbiprofen 4′-hydroxylation
Protocol: (§1) Mutations were confirmed by DNA sequencing using an Applied Biosystems 3130xl Genetic Analyzer with BigDye Terminator v3.1 Chemistry (Applied Biosystems).
(§2) WT and mutant CYP2C9 proteins and NADPH-CPR were coexpressed according to Boye et al. ([61]). Plasmids were transformed into E. coli DH5R competent cells and single isolated colonies were grown by shaking at 37 °C overnight in Luria-Bertani medium containing ampicillin (100 mg/L) and chloramphenicol (50 mg/L). Overnight cultures of each clone were diluted 1:100 in Terrific broth containing 0.2% Bacto Peptone (w/v), ampicillin (100 mg/L), and chloramphenicol (50 mg/L). Cells were grown at 37 °C in a rotary shaker until the absorbance at 600 nm reached 0.7, when δ-aminolevulinic acid and isopropyl-α-D-thiogalactopyroside were added to final concentrations of 0.5 mM and 1 mM, respectively. Cultures were then grown at 30 °C with shaking at 200 rpm for 24 h. Bacterial cells were harvested, and membrane fractions were prepared as described by Gillam et al. ([62]). The P450 content of bacterial membranes was quantified spectrophotometrically using established methods ([63], [64], [65]). CPR content was measured spectrophotometrically as the NADPH-cytochrome c reductase activity ([66]).
(§3) Incubations were performed in phosphate buffer (100 μl; 0.1 M, pH 7.4) and contained WT or mutant CYP2C9 protein, 3 pmol/ml. […] After preincubation at 37 °C for 5 min, reactions were initiated by the addition of NADPH (1 mM final concentration) containing MgCl2 (4 mM). Following incubation at 37 °C for 30 min, reactions were terminated by the addition of 11.6 M HClO4 (1 μl). Samples were cooled on ice and then centrifuged at 5000g, 4 °C for 10 min. An aliquot (20 μl) of the supernatant fraction was injected into the HPLC column. […] The mobile phase comprised 25 mM phosphate buffer containing 0.02% triethylamine and 5% acetonitrile (phase A) and acetonitrile (phase B), delivered at a flow rate of 1 ml/min. […] Given the favorable sensitivities of these assays, rates of metabolite formation below the lower limits of quantification may be considered negligible.
(§4) Kinetic data are presented as the mean (± SD) of four separate experiments. […] CLint, which reflects reaction efficiency, was calculated as Vmax/Km.

WT CYP2C9 [2] = biological target: T2, WT CYP2C9 (Homo sapiens, UniProt P11712); conditions: for Vmax, flurbiprofen 4′-hydroxylation / CLint, flurbiprofen 4′-hydroxylation: WT; for CLint, flurbiprofen 4′-hydroxylation: Vmax/Km
Protocol: (§5) Incubations were performed in phosphate buffer (100 μl; 0.1 M, pH 7.4) and contained WT or mutant CYP2C9 protein, 3 pmol/ml. […] After preincubation at 37 °C for 5 min, reactions were initiated by the addition of NADPH (1 mM final concentration) containing MgCl2 (4 mM). […] Samples were cooled on ice and then centrifuged at 5000g, 4 °C for 10 min. An aliquot (20 μl) of the supernatant fraction was injected into the HPLC column. […] The mobile phase comprised 25 mM phosphate buffer containing 0.02% triethylamine and 5% acetonitrile (phase A) and acetonitrile (phase B), delivered at a flow rate of 1 ml/min. […] Given the favorable sensitivities of these assays, rates of metabolite formation below the lower limits of quantification may be considered negligible.
as §4

CYP2C9 Lys206Ala mutant [3] = biological target: T1, CYP2C9 Lys206Ala mutant; conditions: for Vmax, flurbiprofen 4′-hydroxylation / CLint, flurbiprofen 4′-hydroxylation: Lys206Ala; for CLint, flurbiprofen 4′-hydroxylation: Vmax/Km
Protocol: as §1, §2, §3, §4

WT CYP2C9 [4] = biological target: T2, WT CYP2C9; test: in vitro; conditions: pH 7.4, Km, flurbiprofen 4′-hydroxylation
Protocol: as §5, §4

CYP3A [5] = conditions: semisimultaneous administration of efavirenz; cited from earlier work
CYP3A [6] = conditions: monkeys coadministered quinidine; cited from earlier work
WT CYP2C9 [7] = biological target: T2, WT CYP2C9; conditions: dapsone 100 μM
Protocol: Incubations were performed in phosphate buffer (100 μl; 0.1 M, pH 7.4) and contained WT or mutant CYP2C9 protein, 3 pmol/ml. […] After preincubation at 37 °C for 5 min, reactions were initiated by the addition of NADPH (1 mM final concentration) containing MgCl2 (4 mM). Following incubation at 37 °C for 30 min, reactions were terminated by the addition of 11.6 M HClO4 (1 μl). Samples were cooled on ice and then centrifuged at 5000g, 4 °C for 10 min. An aliquot (20 μl) of the supernatant fraction was injected into the HPLC column. […] The mobile phase comprised 25 mM phosphate buffer containing 0.02% triethylamine and 5% acetonitrile (phase A) and acetonitrile (phase B), delivered at a flow rate of 1 ml/min.
The mobile phase comprised 10 mM ammonium formate (pH 3) in 5% acetonitrile (mobile phase A) and acetonitrile (mobile phase B), delivered at a flow rate of 1 ml/min. The initial mobile phase composition was 80% mobile phase A and 20% mobile phase B, which was delivered for 8 min. After this time, the proportion of mobile phase B was increased to 70% over 0.1 min, and then held for 2 min before returning to the initial conditions.
Kinetic data are presented as the mean (± SD) of four separate experiments. Unless otherwise stated, metabolite formation followed sigmoidal kinetics, which was confirmed by comparison of goodness-of-fit parameters from fitting rate of metabolite formation versus substrate concentration data with the equations for empirical kinetic models (Michaelis–Menten, substrate inhibition, biphasic, and positive cooperativity) using the program GraphPad Prism version 7.01 (https://www.graphpad.com, GraphPad Software, Inc).

recombinant CYP2C9 = conditions: cited from earlier work
[8] = healthy volunteers; cited from earlier work
CYP3A4 = tested on: CYP3A4; parameters: method as in PMID 19752211; conditions: coadministration of gefitinib, CYP3A4-humanized mice; cited from earlier work
CYP2C9 Lys206Ala mutant [9] = biological target: T1, CYP2C9 Lys206Ala mutant; test: Diclofenac 4′-hydroxylation kinetics, Lys206Ala mutant; conditions: for CLint, diclofenac 4′-hydroxylation: Vmax/Km; for Km at 7 min: human, pH 7.4, Km, diclofenac 4′-hydroxylation
Protocol: as §1, §2, §3
(§6) The mobile phase comprised 10 mM ammonium formate (pH 3) in 5% acetonitrile (mobile phase A) and acetonitrile (mobile phase B) delivered at a flow rate of 1 ml/min.
as §4

WT CYP2C9 [10] = biological target: T2, WT CYP2C9; test: Diclofenac 4′-hydroxylation kinetics, recombinant WT CYP2C9; conditions: for CLint, diclofenac 4′-hydroxylation: Vmax/Km; for Km at 7 min: human, pH 7.4, Km, diclofenac 4′-hydroxylation
Protocol: as §3, §6
Kinetic data are presented as the mean (± SD) of four separate experiments. Unless otherwise stated, metabolite formation followed sigmoidal kinetics, which was confirmed by comparison of goodness-of-fit parameters from fitting rate of metabolite formation versus substrate concentration data with the equations for empirical kinetic models (Michaelis–Menten, substrate inhibition, biphasic, and positive cooperativity) using the program GraphPad Prism version 7.01 (https://www.graphpad.com, GraphPad Software, Inc). […] CLint, which reflects reaction efficiency, was calculated as Vmax/Km.

[11] = tested on: CYP2C9 Phe114 substituted with Ile and Leu; conditions: cited from earlier work
[12] = tested on: CYP2C9 Phe114 substituted with Ile and Leu; conditions: Phe114Ile and Phe114Leu vs WT; cited from earlier work
[13] = Lys206Ala vs WT CYP2C9, − dapsone

C[C@H](C(=O)O)c1ccc(-c2ccccc2)c(F)c1 [Flurbiprofen, S-flurbiprofen]
shift of the 4′-proton of flurbiprofen nearer to the heme Fe in the presence of dapsone (CYP2C9; T1 relaxation rates by NMR): 0.9 Å
increase in binding affinity of flurbiprofen in the presence of dapsone (CYP2C9): approximately 60%
estimate of the shift in the SOM–heme Fe distance of flurbiprofen with dapsone (CYP2C9 homology model): 0.5 Å
Km at 30 min (CYP2C9 Lys206Ala mutant [1]; + dapsone 100 μM): 6.6 ± 0.3 µM
Km at 30 min (CYP2C9 Lys206Ala mutant [1]; − dapsone): 16.2 ± 0.6 µM
Vmax, flurbiprofen 4′-hydroxylation (WT CYP2C9 [2]; + dapsone 100 μM): 5.30 ± 0.09 pmol/min/pmol P450
CLint, flurbiprofen 4′-hydroxylation (WT CYP2C9 [2]; + dapsone 100 μM): 0.946 ± 0.033 μL/min/pmol P450
CLint, flurbiprofen 4′-hydroxylation (WT CYP2C9 [2]; − dapsone): 0.407 ± 0.01 μL/min/pmol P450
Vmax, flurbiprofen 4′-hydroxylation (WT CYP2C9 [2]; − dapsone, mean ± SD): 5.05 pmol/min/pmol P450 and 5.05 ± 0.08 pmol/min/pmol P450
Km for flurbiprofen 4′-hydroxylation, higher than WT (CYP2C9 Lys206Ala mutant [3]; [13]): 30%
Vmax for flurbiprofen 4′-hydroxylation, lower than WT (CYP2C9 Lys206Ala mutant [3]; [13]): 37%
intrinsic clearance (CLint) of flurbiprofen 4′-hydroxylation, lower than WT (CYP2C9 Lys206Ala mutant [3]; [13]): approximately 50%
Vmax, flurbiprofen 4′-hydroxylation (CYP2C9 Lys206Ala mutant [3]; + dapsone 100 μM): 4.27 ± 0.11 pmol/min/pmol P450
CLint, flurbiprofen 4′-hydroxylation (CYP2C9 Lys206Ala mutant [3]; + dapsone 100 μM): 0.66 ± 0.03 μL/min/pmol P450
Vmax, flurbiprofen 4′-hydroxylation (CYP2C9 Lys206Ala mutant [3]; − dapsone): 3.21 ± 0.14 pmol/min/pmol P450
CLint, flurbiprofen 4′-hydroxylation (CYP2C9 Lys206Ala mutant [3]; − dapsone): 0.20 ± 0.01 μL/min/pmol P450
Km at 30 min (WT CYP2C9 [4]; + dapsone 100 μM): 5.6 ± 0.31 µM
Km at 30 min (WT CYP2C9 [4]; − dapsone, mean ± SD, four experiments): 12.4 ± 0.44 µM

O=C1Nc2ccc(Cl)cc2[C@@](C#CC2CC2)(C(F)(F)F)O1 [efavirenz]
increase in apparent oral clearance of midazolam (CYP3A [5]): 70%

C=C[C@H]1C[N@@]2CC[C@H]1C[C@@H]2[C@@H](O)c1ccnc2ccc(OC)cc12 [quinidine]
decrease in steady-state plasma concentrations of diclofenac (CYP3A [6]): approximately 50%

Nc1ccc(S(=O)(=O)c2ccc(N)cc2)cc1 [dapsone]
decrease in the Km for naproxen demethylation by dapsone (WT CYP2C9 [7]): 70%
increase in Vmax of naproxen demethylation by dapsone (WT CYP2C9 [7]): 4.8 fold
increase in catalytic efficiency (CLint) of naproxen O-demethylation by dapsone (WT CYP2C9 [7]): 16.5 fold
increase in Vmax of flurbiprofen 4′-hydroxylation by dapsone (recombinant CYP2C9; WT CYP2C9, earlier study): ~60%
dapsone concentration giving maximum activation (recombinant CYP2C9; flurbiprofen 4′-hydroxylation, naproxen O-demethylation, piroxicam 5′-hydroxylation, confirmed here with naproxen (data not shown)): 100 µM
effect of dapsone on Vmax of flurbiprofen 4′-hydroxylation (WT CYP2C9 [2]; WT CYP2C9, dapsone 100 μM): unaffected; also recorded: without significantly affecting
increase in catalytic efficiency (CLint) of flurbiprofen 4′-hydroxylation by dapsone (WT CYP2C9 [2]; WT CYP2C9, dapsone 100 μM): 2.3 fold
reduction in the Km for flurbiprofen 4′-hydroxylation by dapsone (WT CYP2C9 [2]; WT CYP2C9, dapsone 100 μM): ~60%
increase in flurbiprofen exposure on coadministration of dapsone [8]: 10%

COc1cc2ncnc(Nc3ccc(F)c(Cl)c3)c2cc1OCCCN1CCOCC1 [gefitinib]
effect on triazolam exposure (CYP3A4): significantly reduce

O=C(O)Cc1ccccc1Nc1c(Cl)cccc1Cl [Diclofenac, diclofenac]
Vmax, diclofenac 4′-hydroxylation (CYP2C9 Lys206Ala mutant [9]; + dapsone 100 μM): 4.41 ± 0.12 pmol/min/pmol P450
CLint, diclofenac 4′-hydroxylation (CYP2C9 Lys206Ala mutant [9]; + dapsone 100 μM): 1.81 ± 0.07 μL/min/pmol P450
Km at 7 min (CYP2C9 Lys206Ala mutant [9]; + dapsone 100 μM): 2.45 ± 0.13 µM
Km at 7 min (CYP2C9 Lys206Ala mutant [9]; − dapsone): 4.05 ± 0.35 µM
Vmax, diclofenac 4′-hydroxylation (CYP2C9 Lys206Ala mutant [9]; − dapsone): 6.53 ± 0.19 pmol/min/pmol P450
CLint, diclofenac 4′-hydroxylation (CYP2C9 Lys206Ala mutant [9]; − dapsone): 1.64 ± 0.10 μL/min/pmol P450
Vmax, diclofenac 4′-hydroxylation (WT CYP2C9 [10]; + dapsone 100 μM): 3.19 ± 0.09 pmol/min/pmol P450
CLint, diclofenac 4′-hydroxylation (WT CYP2C9 [10]; + dapsone 100 μM): 1.99 ± 0.17 μL/min/pmol P450
Km at 7 min (WT CYP2C9 [10]; + dapsone 100 μM): 1.6 ± 0.15 µM
Km at 7 min (WT CYP2C9 [10]; − dapsone): 2.18 ± 0.16 µM
Vmax, diclofenac 4′-hydroxylation (WT CYP2C9 [10]; − dapsone): 5.20 ± 0.13 pmol/min/pmol P450
CLint, diclofenac 4′-hydroxylation (WT CYP2C9 [10]; − dapsone): 2.39 ± 0.16 μL/min/pmol P450
reduction of CLint for diclofenac 4′-hydroxylation (abolished or reduced) [11]: ≥ 89%

CC(=O)C[C@@H](c1ccccc1)c1c(O)c2ccccc2oc1=O [S-warfarin]
reduction of CLint for S-warfarin 7-hydroxylation (abolished or reduced) [12]: ≥ 89%
